Laboratory results as given in ChEMBL document CHEMBL1255467, “Comparative in vitro antimicrobial activities of torezolid (TR-700), the active moiety of a new oxazolidinone, torezolid phosphate (TR-701), determination of tentative disk diffusion interpretive criteria, and quality control ranges” (2010).
Values after ≈ are worked out from the molar mass of the structure shown.

Experiments:
Staphylococcus aureus [1] = experiment: Antimicrobial activity against linezolid-resistant Staphylococcus aureus by broth dilution method; type: functional
Staphylococcus aureus [2] = experiment: Antimicrobial activity against methicillin-resistant Staphylococcus aureus by broth dilution method; type: functional
Staphylococcus aureus [3] = experiment: Antimicrobial activity against methicillin-susceptible Staphylococcus aureus by broth dilution method; type: functional
Staphylococcus aureus [4] = experiment: Antimicrobial activity against Staphylococcus aureus by broth dilution method; type: functional
Staphylococcus sp. [5] = experiment: Antimicrobial activity against Staphylococcus sp. by broth dilution method; type: functional
Staphylococcus sp. [6] = experiment: Antimicrobial activity against methicillin-resistant coagulase-negative Staphylococcus by broth dilution method; type: functional
Staphylococcus aureus [7] = experiment: Antimicrobial activity against vancomycin-nonsusceptible Staphylococcus aureus by broth dilution method; type: functional
Staphylococcus sp. [8] = experiment: Antimicrobial activity against methicillin-susceptible coagulase-negative Staphylococcus by broth dilution method; type: functional
Enterococcus sp. = experiment: Antimicrobial activity against Enterococcus by broth dilution method; type: functional
Enterococcus faecalis [9] = experiment: Antimicrobial activity against vancomycin-resistant Enterococcus faecalis by broth dilution method; type: functional
Enterococcus faecalis [10] = experiment: Antimicrobial activity against vancomycin-susceptible Enterococcus faecalis by broth dilution method; type: functional
Enterococcus faecium [11] = experiment: Antimicrobial activity against vancomycin-resistant Enterococcus faecium by broth dilution method; type: functional
Enterococcus faecium [12] = experiment: Antimicrobial activity against vancomycin-susceptible Enterococcus faecium by broth dilution method; type: functional
Streptococcus pneumoniae [13] = experiment: Antimicrobial activity against Streptococcus pneumoniae by broth dilution method; type: functional
Streptococcus pneumoniae [14] = experiment: Antimicrobial activity against penicillin-susceptible Streptococcus pneumoniae by broth dilution method; type: functional
Streptococcus pneumoniae [15] = experiment: Antimicrobial activity against penicillin-intermediate Streptococcus pneumoniae by broth dilution method; type: functional
Streptococcus pneumoniae [16] = experiment: Antimicrobial activity against penicillin-resistant Streptococcus pneumoniae by broth dilution method; type: functional
Streptococcus viridans = experiment: Antimicrobial activity against Streptococcus viridans by broth dilution method; type: functional
Corynebacterium jeikeium = experiment: Antimicrobial activity against Corynebacterium jeikeium by broth dilution method; type: functional
Listeria monocytogenes = experiment: Antimicrobial activity against Listeria monocytogenes by broth dilution method; type: functional
Moraxella catarrhalis = experiment: Antimicrobial activity against Moraxella catarrhalis by broth dilution method; type: functional
Haemophilus influenzae [17] = experiment: Antimicrobial activity against Haemophilus influenzae by broth dilution method; type: functional
Haemophilus influenzae [18] = experiment: Antimicrobial activity against beta-lactamase negative Haemophilus influenzae by broth dilution method; type: functional
Haemophilus influenzae [19] = experiment: Antimicrobial activity against beta-lactamase positive Haemophilus influenzae by broth dilution method; type: functional
Haemophilus influenzae [20] = experiment: Antimicrobial activity against ampicillin-nonsusceptible beta-lactamase negative Haemophilus influenzae by broth dilution method; type: functional
Streptococcus sp = experiment: Antimicrobial activity against streptococcal sp. by broth dilution method

SMILES: Cn1nnc(-c2ccc(-c3ccc(N4C[C@H](CO)OC4=O)cc3F)cn2)n1 [TEDIZOLID]
- MBC (Staphylococcus aureus [1]): > 16 µg/mL
- MIC50 (Staphylococcus aureus [1]): 4 µg/mL (≈ 10.8 µM)
- MIC90 (Staphylococcus aureus [1]): 8 µg/mL (≈ 21.6 µM)
- MBC50 (Staphylococcus aureus [2]): 2 µg/mL (≈ 5.4 µM)
- MIC50 (Staphylococcus aureus [2]; Staphylococcus aureus): 0.5 µg/mL (≈ 1.35 µM)
- MIC90 (Staphylococcus aureus [2]; Staphylococcus aureus): 1 µg/mL (≈ 2.7 µM)
- MBC50 (Staphylococcus aureus [3]): 16 µg/mL (≈ 43.2 µM)
- MBC90 (Staphylococcus aureus [3]): 32 µg/mL (≈ 86.4 µM)
- MBC (Staphylococcus aureus [3]; Staphylococcus aureus): 1 µg/mL (≈ 2.7 µM)
- MIC (Staphylococcus aureus [3]; Staphylococcus aureus): 0.25 µg/mL (≈ 0.675 µM)
- MIC50 (Staphylococcus aureus [3]; Staphylococcus aureus): 0.25 µg/mL (≈ 0.675 µM)
- MIC90 (Staphylococcus aureus [3]; Staphylococcus aureus): 0.5 µg/mL (≈ 1.35 µM)
- MBC50 (Staphylococcus aureus [4]): 4 µg/mL (≈ 10.8 µM)
- MBC90 (Staphylococcus aureus [4]): 16 µg/mL (≈ 43.2 µM)
- MBC (Staphylococcus aureus [4]; Staphylococcus aureus): > 0.5 µg/mL
- MIC50 (Staphylococcus aureus [4]; Staphylococcus aureus): 0.5 µg/mL (≈ 1.35 µM)
- MIC90 (Staphylococcus aureus [4]; Staphylococcus aureus): 0.5 µg/mL (≈ 1.35 µM)
- MBC50 (Staphylococcus sp. [5]): 8 µg/mL (≈ 21.6 µM)
- MBC90 (Staphylococcus sp. [5]): 32 µg/mL (≈ 86.4 µM)
- MBC (Staphylococcus sp. [5]; Staphylococcus sp.): > 0.5 µg/mL
- MIC50 (Staphylococcus sp. [5]; Staphylococcus sp.): 0.25 µg/mL (≈ 0.675 µM)
- MIC90 (Staphylococcus sp. [5]; Staphylococcus sp.): 0.5 µg/mL (≈ 1.35 µM)
- MIC50 (Staphylococcus sp. [6]): 0.25 µg/mL (≈ 0.675 µM)
- MIC90 (Staphylococcus sp. [6]): 0.5 µg/mL (≈ 1.35 µM)
- MBC50 (Staphylococcus aureus [7]): 0.5 µg/mL (≈ 1.35 µM)
- MBC90 (Staphylococcus aureus [7]): 1 µg/mL (≈ 2.7 µM)
- MBC (Staphylococcus aureus [7]; Staphylococcus aureus): 0.5 µg/mL (≈ 1.35 µM)
- MIC50 (Staphylococcus aureus [7]; Staphylococcus aureus): 0.25 µg/mL (≈ 0.675 µM)
- MIC90 (Staphylococcus aureus [7]; Staphylococcus aureus): 1 µg/mL (≈ 2.7 µM)
- MBC50 (Staphylococcus sp. [8]): 16 µg/mL (≈ 43.2 µM)
- MBC90 (Staphylococcus sp. [8]): 32 µg/mL (≈ 86.4 µM)
- MBC (Staphylococcus sp. [8]; Staphylococcus sp.): > 2 µg/mL
- MIC50 (Staphylococcus sp. [8]; Staphylococcus sp.): 0.25 µg/mL (≈ 0.675 µM)
- MIC90 (Staphylococcus sp. [8]; Staphylococcus sp.): 0.5 µg/mL (≈ 1.35 µM)
- MBC50 (Enterococcus sp.): 32 µg/mL (≈ 86.4 µM)
- MBC90 (Enterococcus sp.): 32 µg/mL (≈ 86.4 µM)
- MBC (Enterococcus sp.; Enterococcus sp.): > 1 µg/mL
- MIC50 (Enterococcus sp.; Enterococcus sp.): 0.5 µg/mL (≈ 1.35 µM)
- MIC90 (Enterococcus sp.; Enterococcus sp.): 0.5 µg/mL (≈ 1.35 µM)
- MBC (Enterococcus faecalis [9]): > 16 µg/mL
- MIC50 (Enterococcus faecalis [9]): 0.5 µg/mL (≈ 1.35 µM)
- MIC90 (Enterococcus faecalis [9]): 0.5 µg/mL (≈ 1.35 µM)
- MBC50 (Enterococcus faecalis [10]): 32 µg/mL (≈ 86.4 µM)
- MBC90 (Enterococcus faecalis [10]): 32 µg/mL (≈ 86.4 µM)
- MBC (Enterococcus faecalis [10]; Enterococcus faecalis): 16 µg/mL (≈ 43.2 µM)
- MIC50 (Enterococcus faecalis [10]; Enterococcus faecalis): 0.5 µg/mL (≈ 1.35 µM)
- MIC90 (Enterococcus faecalis [10]; Enterococcus faecalis): 0.5 µg/mL (≈ 1.35 µM)
- MBC (Enterococcus faecium [11]): 1 µg/mL (≈ 2.7 µM)
- MIC50 (Enterococcus faecium [11]): 0.5 µg/mL (≈ 1.35 µM)
- MIC90 (Enterococcus faecium [11]): 0.5 µg/mL (≈ 1.35 µM)
- MBC50 (Enterococcus faecium [12]): 32 µg/mL (≈ 86.4 µM)
- MBC90 (Enterococcus faecium [12]): 32 µg/mL (≈ 86.4 µM)
- MBC (Enterococcus faecium [12]; Enterococcus faecium): 16 µg/mL (≈ 43.2 µM)
- MIC50 (Enterococcus faecium [12]; Enterococcus faecium): 0.5 µg/mL (≈ 1.35 µM)
- MIC90 (Enterococcus faecium [12]; Enterococcus faecium): 0.5 µg/mL (≈ 1.35 µM)
- MBC50 (Streptococcus pneumoniae [13]): 1 µg/mL (≈ 2.7 µM)
- MBC90 (Streptococcus pneumoniae [13]): 2 µg/mL (≈ 5.4 µM)
- MBC (Streptococcus pneumoniae [13]; Streptococcus pneumoniae): 0.5 µg/mL (≈ 1.35 µM)
- MIC50 (Streptococcus pneumoniae [13]; Streptococcus pneumoniae): 0.25 µg/mL (≈ 0.675 µM)
- MIC90 (Streptococcus pneumoniae [13]; Streptococcus pneumoniae): 0.25 µg/mL (≈ 0.675 µM)
- MBC50 (Streptococcus pneumoniae [14]): 1 µg/mL (≈ 2.7 µM)
- MBC90 (Streptococcus pneumoniae [14]): 4 µg/mL (≈ 10.8 µM)
- MBC (Streptococcus pneumoniae [14]; Streptococcus pneumoniae): 0.5 µg/mL (≈ 1.35 µM)
- MIC50 (Streptococcus pneumoniae [14]; Streptococcus pneumoniae): 0.25 µg/mL (≈ 0.675 µM)
- MIC90 (Streptococcus pneumoniae [14]; Streptococcus pneumoniae): 0.25 µg/mL (≈ 0.675 µM)
- MBC50 (Streptococcus pneumoniae [15]): 1 µg/mL (≈ 2.7 µM)
- MBC90 (Streptococcus pneumoniae [15]): 1 µg/mL (≈ 2.7 µM)
- MBC (Streptococcus pneumoniae [15]; Streptococcus pneumoniae): 0.5 µg/mL (≈ 1.35 µM)
- MIC50 (Streptococcus pneumoniae [15]; Streptococcus pneumoniae): 0.25 µg/mL (≈ 0.675 µM)
- MIC90 (Streptococcus pneumoniae [15]; Streptococcus pneumoniae): 0.5 µg/mL (≈ 1.35 µM)
- MBC (Streptococcus pneumoniae [16]): 1 µg/mL (≈ 2.7 µM)
- MIC50 (Streptococcus pneumoniae [16]): 0.25 µg/mL (≈ 0.675 µM)
- MIC90 (Streptococcus pneumoniae [16]): 0.25 µg/mL (≈ 0.675 µM)
- MIC50 (Streptococcus viridans): 0.25 µg/mL (≈ 0.675 µM)
- MIC90 (Streptococcus viridans): 0.25 µg/mL (≈ 0.675 µM)
- MIC (Corynebacterium jeikeium): 0.25 µg/mL (≈ 0.675 µM)
- MIC50 (Corynebacterium jeikeium): 0.25 µg/mL (≈ 0.675 µM)
- MIC90 (Corynebacterium jeikeium): 0.5 µg/mL (≈ 1.35 µM)
- MIC (Listeria monocytogenes): 0.25 µg/mL (≈ 0.675 µM)
- MIC50 (Listeria monocytogenes): 0.25 µg/mL (≈ 0.675 µM)
- MIC90 (Listeria monocytogenes): 0.25 µg/mL (≈ 0.675 µM)
- MIC50 (Moraxella catarrhalis): 4 µg/mL (≈ 10.8 µM)
- MIC90 (Moraxella catarrhalis): 4 µg/mL (≈ 10.8 µM)
- MBC50 (Haemophilus influenzae [17]): >32 µg/mL
- MBC90 (Haemophilus influenzae [17]): >32 µg/mL
- MBC (Haemophilus influenzae [17]; Haemophilus influenzae): > 8 µg/mL
- MIC50 (Haemophilus influenzae [17]; Haemophilus influenzae): 8 µg/mL (≈ 21.6 µM)
- MIC90 (Haemophilus influenzae [17]; Haemophilus influenzae): 16 µg/mL (≈ 43.2 µM)
- MBC50 (Haemophilus influenzae [18]): >32 µg/mL
- MBC90 (Haemophilus influenzae [18]): >32 µg/mL
- MBC (Haemophilus influenzae [18]; Haemophilus influenzae): > 16 µg/mL
- MIC50 (Haemophilus influenzae [18]; Haemophilus influenzae): 8 µg/mL (≈ 21.6 µM)
- MIC90 (Haemophilus influenzae [18]; Haemophilus influenzae): 16 µg/mL (≈ 43.2 µM)
- MBC50 (Haemophilus influenzae [19]): >32 µg/mL
- MIC90 (Haemophilus influenzae [19]): >32 µg/mL
- MBC (Haemophilus influenzae [19]; Haemophilus influenzae): > 32 µg/mL
- MIC50 (Haemophilus influenzae [19]; Haemophilus influenzae): 8 µg/mL (≈ 21.6 µM)
- MIC90 (Haemophilus influenzae [19]; Haemophilus influenzae, read-out: MIC90): 32 µg/mL (≈ 86.4 µM)
- MBC50 (Haemophilus influenzae [20]): >32 µg/mL
- MBC90 (Haemophilus influenzae [20]): >32 µg/mL
- MBC (Haemophilus influenzae [20]; Haemophilus influenzae): > 8 µg/mL
- MIC50 (Haemophilus influenzae [20]; Haemophilus influenzae): 8 µg/mL (≈ 21.6 µM)
- MIC90 (Haemophilus influenzae [20]; Haemophilus influenzae): 16 µg/mL (≈ 43.2 µM)
- MBC50 (Streptococcus sp): 1 µg/mL (≈ 2.7 µM)
- MBC90 (Streptococcus sp): 16 µg/mL (≈ 43.2 µM)
- MBC (Streptococcus sp; Streptococcus sp.): 0.5 µg/mL (≈ 1.35 µM)
- MIC50 (Streptococcus sp; Streptococcus sp.): 0.25 µg/mL (≈ 0.675 µM)
- MIC90 (Streptococcus sp; Streptococcus sp.): 0.25 µg/mL (≈ 0.675 µM)
